Assay results from patent publication US20250375422A1, “METHOD FOR TREATING CANCERS” (Acura Nanomedicine Corporation, priority 2019, published 2025).

Tested on: BxPC-3 cells
Test: MTT assay, cell viability of pancreatic cancer BxPC-3 cells
Assay type: cell-based, human
Protocol: Cell lines used in the present disclosure include human pancreatic cancer cell lines BxPC-3, Mia-Paca-2/R (gemcitabine resistant cell line), and Panc-1/R (gemcitabine resistant cell line); human liver cancer cell lines SK-Hep-1 and Hep 3B; and human brain glioblastoma cell line GBM8401, which is a TMZ-resistant cell line. Cells were cultured in Dulbecco's modified Eagle media (DMEM) supplemented with 10% heat inactivated fetal bovine serum (FBS), 50 units/mL penicillin G, 50 μg/mL streptomycin (pH 7.4), and the cells were maintained in humidified environment comprising 5% CO2/95% air at 37° C.
The absorbance of the solution at 570 nm was measured by spectrophotometer.

Compound	cell viability of BxPC-3 cells (HCQ (20 or 50 μM) alone)	viability at 5 µM (Homo sapiens, BXPC-3, MBZ (5 μM)) [%]
CCN(CCO)CCCC(C)Nc1ccnc2cc(Cl)ccc12 (centres unmarked) [HCQ, hydroxychloroquine]	slightly and/or unaffected	–
COC(=O)Nc1nc2ccc(C(=O)c3ccccc3)cc2[nH]1 [MBZ, mebendazole]	–	~60
